Numbers after ± are expanded uncertainties.
Experiment: wn = mass fraction of the nth substance listed
Details: 100 kPa, Liquid; for viscosity: Concentric cylinders viscometry; for mass density: Vibrating tube method

With `CCCCCC(=O)[O-].C[N+](C)(C)CCO` [2-hydroxy-N,N,N-trimethylethanaminium hexanoate] + O the viscosity (293.15 K, w2 = 0.058) was 1187.4 ± 53 mPa·s, the viscosity (293.15 K, w2 = 0.091) was 640.3 ± 25 mPa·s and the viscosity (293.15 K, w2 = 0.161) was 202.1 ± 5.8 mPa·s. It also gave a viscosity (293.15 K, w2 = 0.198) of 166.8 ± 4.4 mPa·s, a mass density (293.15 K, w2 = 0.058) of 1018 ± 1 kg/m3 and a mass density (293.15 K, w2 = 0.091) of 1021 ± 1 kg/m3. For the same compound, the mass density (293.15 K, w2 = 0.161) was 1026 ± 1 kg/m3, the mass density (293.15 K, w2 = 0.198) was 1026 ± 1 kg/m3 and the viscosity (298.15 K, w2 = 0.058) was 831.9 ± 34 mPa·s. The viscosity (298.15 K, w2 = 0.091) was 462.6 ± 16 mPa·s, the viscosity (298.15 K, w2 = 0.161) was 151.2 ± 3.9 mPa·s and the viscosity (298.15 K, w2 = 0.198) was 125.3 ± 3.1 mPa·s. The mass density (298.15 K, w2 = 0.058) was 1015 ± 1 kg/m3, the mass density (298.15 K, w2 = 0.091) was 1018 ± 1 kg/m3 and the mass density (298.15 K, w2 = 0.161) was 1023 ± 1 kg/m3. It also gave a mass density (298.15 K, w2 = 0.198) of 1023 ± 1 kg/m3, a viscosity (303.15 K, w2 = 0.058) of 598.1 ± 23 mPa·s and a viscosity (303.15 K, w2 = 0.091) of 340.7 ± 11 mPa·s. For the same compound, the viscosity (303.15 K, w2 = 0.161) was 114.8 ± 2.8 mPa·s, the viscosity (303.15 K, w2 = 0.198) was 95.6 ± 2.2 mPa·s and the mass density (303.15 K, w2 = 0.058) was 1012 ± 1 kg/m3. It also gave a mass density (303.15 K, w2 = 0.091) of 1015 ± 1 kg/m3, a mass density (303.15 K, w2 = 0.161) of 1020 ± 1 kg/m3 and a mass density (303.15 K, w2 = 0.198) of 1021 ± 1 kg/m3. The viscosity (308.15 K, w2 = 0.058) was 439 ± 15 mPa·s, the viscosity (308.15 K, w2 = 0.091) was 255.5 ± 7.6 mPa·s and the viscosity (308.15 K, w2 = 0.161) was 88.6 ± 2.1 mPa·s. The viscosity (308.15 K, w2 = 0.198) was 74.1 ± 1.7 mPa·s, the mass density (308.15 K, w2 = 0.058) was 1009 ± 1 kg/m3 and the mass density (308.15 K, w2 = 0.091) was 1012 ± 1 kg/m3. For the same compound, the mass density (308.15 K, w2 = 0.161) was 1017 ± 1 kg/m3, the mass density (308.15 K, w2 = 0.198) was 1018 ± 1 kg/m3 and the viscosity (313.15 K, w2 = 0.058) was 328.4 ± 11 mPa·s. For the same compound, the viscosity (313.15 K, w2 = 0.091) was 195.3 ± 5.4 mPa·s, the viscosity (313.15 K, w2 = 0.161) was 69.7 ± 1.6 mPa·s and the viscosity (313.15 K, w2 = 0.198) was 58.4 ± 1.3 mPa·s. The mass density (313.15 K, w2 = 0.058) was 1007 ± 1 kg/m3, the mass density (313.15 K, w2 = 0.091) was 1009 ± 1 kg/m3 and the mass density (313.15 K, w2 = 0.161) was 1014 ± 1 kg/m3. It also gave a mass density (313.15 K, w2 = 0.198) of 1015 ± 1 kg/m3, a viscosity (318.15 K, w2 = 0.058) of 249.1 ± 7.4 mPa·s and a viscosity (318.15 K, w2 = 0.091) of 150.8 ± 3.9 mPa·s. For the same compound, the viscosity (318.15 K, w2 = 0.161) was 55.1 ± 1.2 mPa·s, the viscosity (318.15 K, w2 = 0.198) was 46.4 ± 1 mPa·s and the mass density (318.15 K, w2 = 0.058) was 1004 ± 1 kg/m3. The mass density (318.15 K, w2 = 0.091) was 1006 ± 1 kg/m3, the mass density (318.15 K, w2 = 0.161) was 1011 ± 1 kg/m3 and the mass density (318.15 K, w2 = 0.198) was 1012 ± 1 kg/m3. The viscosity (323.15 K, w2 = 0.058) was 192.3 ± 5.3 mPa·s, the viscosity (323.15 K, w2 = 0.091) was 118.4 ± 2.9 mPa·s and the viscosity (323.15 K, w2 = 0.161) was 44.3 ± 1 mPa·s. The viscosity (323.15 K, w2 = 0.198) was 37.5 ± 0.8 mPa·s, the mass density (323.15 K, w2 = 0.058) was 1001 ± 1 kg/m3 and the mass density (323.15 K, w2 = 0.091) was 1003 ± 1 kg/m3. It also gave a mass density (323.15 K, w2 = 0.161) of 1008 ± 1 kg/m3, a mass density (323.15 K, w2 = 0.198) of 1009 ± 1 kg/m3 and a viscosity (328.15 K, w2 = 0.058) of 150.4 ± 3.9 mPa·s. The viscosity (328.15 K, w2 = 0.091) was 94.1 ± 2.2 mPa·s, the viscosity (328.15 K, w2 = 0.161) was 36.1 ± 0.8 mPa·s and the viscosity (328.15 K, w2 = 0.198) was 30.6 ± 0.7 mPa·s. For the same compound, the mass density (328.15 K, w2 = 0.058) was 998 ± 1 kg/m3, the mass density (328.15 K, w2 = 0.091) was 1001 ± 1 kg/m3 and the mass density (328.15 K, w2 = 0.161) was 1005 ± 1 kg/m3. It also gave a mass density (328.15 K, w2 = 0.198) of 1006 ± 1 kg/m3, a viscosity (333.15 K, w2 = 0.058) of 119.5 ± 3 mPa·s and a viscosity (333.15 K, w2 = 0.091) of 76 ± 1.7 mPa·s. The viscosity (333.15 K, w2 = 0.161) was 29.8 ± 0.7 mPa·s, the viscosity (333.15 K, w2 = 0.198) was 25.3 ± 0.6 mPa·s and the mass density (333.15 K, w2 = 0.058) was 996 ± 1 kg/m3. The mass density (333.15 K, w2 = 0.091) was 998 ± 1 kg/m3, the mass density (333.15 K, w2 = 0.161) was 1003 ± 1 kg/m3 and the mass density (333.15 K, w2 = 0.198) was 1003 ± 1 kg/m3. For the same compound, the viscosity (338.15 K, w2 = 0.058) was 95.6 ± 2.3 mPa·s, the viscosity (338.15 K, w2 = 0.091) was 61.7 ± 1.4 mPa·s and the viscosity (338.15 K, w2 = 0.161) was 24.7 ± 0.6 mPa·s. For the same compound, the viscosity (338.15 K, w2 = 0.198) was 21 ± 0.5 mPa·s, the mass density (338.15 K, w2 = 0.058) was 993 ± 1 kg/m3 and the mass density (338.15 K, w2 = 0.091) was 995 ± 1 kg/m3. For the same compound, the mass density (338.15 K, w2 = 0.161) was 1000 ± 1 kg/m3, the mass density (338.15 K, w2 = 0.198) was 1000 ± 1 kg/m3 and the viscosity (343.15 K, w2 = 0.058) was 77.6 ± 1.8 mPa·s. It also gave a viscosity (343.15 K, w2 = 0.091) of 50.7 ± 1.1 mPa·s, a viscosity (343.15 K, w2 = 0.161) of 20.7 ± 0.5 mPa·s and a viscosity (343.15 K, w2 = 0.198) of 17.7 ± 0.4 mPa·s. It also gave a mass density (343.15 K, w2 = 0.058) of 990 ± 1 kg/m3, a mass density (343.15 K, w2 = 0.091) of 992 ± 1 kg/m3 and a mass density (343.15 K, w2 = 0.161) of 997 ± 1 kg/m3. It also gave a mass density (343.15 K, w2 = 0.198) of 997 ± 1 kg/m3.

— the NIST ThermoML archive (doi:10.1016/j.jct.2014.12.020)
